In PubChem BioAssay (NCI):
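Test compounds were applied to cells in 96-well plates for 48 hours at 5 doses. TGI denotes the concentration required for complete inhibition of growth.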

What was measured:
Experiment in all cases: NCI anticancer screen, dose series, 48 h
[1] = tested on: HL-60(TB) leukemia
[2] = tested on: SF-539 CNS
[3] = tested on: CCRF-CEM leukemia
[4] = tested on: LOX IMVI melanoma
[5] = tested on: MDA-MB-231 breast
[6] = tested on: CAKI-1 renal
[7] = tested on: HOP-92 NSCLC
[8] = tested on: A549 NSCLC
[9] = tested on: DU-145 prostate
[10] = tested on: U251 CNS
[11] = tested on: MCF7 breast
[12] = tested on: K-562 leukemia
[13] = tested on: KM12 colon
[14] = tested on: MDA-MB-435
[15] = tested on: SR leukemia
[16] = tested on: UACC-257 melanoma
[17] = tested on: TK-10 renal
[18] = tested on: M14 melanoma
[19] = tested on: HS 578T breast
[20] = tested on: SF-268 CNS
[21] = tested on: SW-620 colon
[22] = tested on: IGROV1 ovarian
[23] = tested on: T-47D breast
[24] = tested on: SN12C renal
[25] = tested on: RXF 393 renal
[26] = tested on: PC-3 prostate
[27] = tested on: SF-295 CNS
[28] = tested on: A498 renal
[29] = tested on: SK-MEL-2 melanoma
[30] = tested on: OVCAR-3 ovarian
[31] = tested on: HT29 colon
[32] = tested on: NCI/ADR-RES ovarian
[33] = tested on: OVCAR-8 ovarian
[34] = tested on: HOP-62 NSCLC
[35] = tested on: UACC-62 melanoma
[36] = tested on: SNB-19 CNS
[37] = tested on: HCT-15 colon
[38] = tested on: SNB-75 CNS
[39] = tested on: HCC-2998 colon
[40] = tested on: COLO 205 colon
[41] = tested on: OVCAR-5 ovarian
[42] = tested on: OVCAR-4 ovarian
[43] = tested on: EKVX NSCLC
[44] = tested on: NCI-H226 lung
[45] = tested on: NCI-H522 lung
[46] = tested on: UO-31 renal
[47] = tested on: 786-0 renal
[48] = tested on: ACHN renal
[49] = tested on: MALME-3M melanoma
[50] = tested on: SK-OV-3 ovarian
[51] = tested on: SK-MEL-28 melanoma
[52] = tested on: BT-549 breast
[53] = tested on: MOLT-4 leukemia
[54] = tested on: HCT-116 colon
[55] = tested on: SK-MEL-5 melanoma
[56] = tested on: MDA-N
[57] = tested on: NCI-H460 lung
[58] = tested on: NCI-H23 lung
[59] = tested on: RPMI-8226 leukemia

CC(=O)Nc1nc(NC(C)=O)c2[nH]c(CO)nc2n1
TGI [1]: > 100 µM | TGI [2]: > 100 µM | TGI [3]: > 100 µM | TGI [4]: > 100 µM | TGI [5]: > 100 µM | TGI [6]: > 100 µM | TGI [7]: > 100 µM | TGI [8]: > 100 µM | TGI [9]: > 100 µM | TGI [10]: > 100 µM | TGI [11]: > 100 µM | TGI [12]: > 100 µM | TGI [13]: > 100 µM | TGI [14]: > 100 µM | TGI [15]: > 100 µM | TGI [16]: > 100 µM | TGI [17]: > 100 µM | TGI [18]: > 100 µM | TGI [19]: > 100 µM | TGI [20]: > 100 µM | TGI [21]: > 100 µM | TGI [22]: > 100 µM | TGI [23]: > 100 µM | TGI [24]: > 100 µM | TGI [25]: > 100 µM | TGI [26]: > 100 µM | TGI [27]: > 100 µM | TGI [28]: > 100 µM | TGI [29]: > 100 µM | TGI [30]: > 100 µM | TGI [31]: > 100 µM | TGI [32]: > 100 µM | TGI [33]: > 100 µM | TGI [34]: > 100 µM | TGI [35]: > 100 µM | TGI [36]: > 100 µM | TGI [37]: > 100 µM | TGI [38]: > 100 µM | TGI [39]: > 100 µM | TGI [40]: > 100 µM | TGI [41]: > 100 µM | TGI [42]: > 100 µM | TGI [43]: > 100 µM | TGI [44]: > 100 µM | TGI [45]: > 100 µM | TGI [46]: > 100 µM | TGI [47]: > 100 µM | TGI [48]: > 100 µM | TGI [49]: > 100 µM | TGI [50]: > 100 µM | TGI [51]: > 100 µM | TGI [52]: > 100 µM | TGI [53]: > 100 µM | TGI [54]: > 100 µM | TGI [55]: > 100 µM | TGI [56]: > 100 µM | TGI [57]: > 100 µM | TGI [58]: > 100 µM

O=S(=O)(c1ccccc1)N1CCN(S(=O)(=O)c2ccccc2)c2ccccc21
TGI [59]: > 100 µM | TGI [2]: > 100 µM | TGI [4]: > 100 µM | TGI [5]: > 100 µM | TGI [6]: > 100 µM | TGI [7]: > 100 µM | TGI [8]: > 100 µM | TGI [9]: > 100 µM | TGI [10]: > 100 µM | TGI [11]: > 100 µM | TGI [12]: > 100 µM | TGI [13]: > 100 µM | TGI [14]: > 100 µM | TGI [15]: > 100 µM | TGI [16]: > 100 µM | TGI [17]: > 100 µM | TGI [18]: > 100 µM | TGI [19]: > 100 µM | TGI [20]: > 100 µM | TGI [21]: > 100 µM | TGI [22]: > 100 µM | TGI [23]: > 100 µM | TGI [24]: > 100 µM | TGI [25]: > 100 µM | TGI [26]: > 100 µM | TGI [27]: > 100 µM | TGI [28]: > 100 µM | TGI [29]: > 100 µM | TGI [30]: > 100 µM | TGI [31]: > 100 µM | TGI [32]: > 100 µM | TGI [33]: > 100 µM | TGI [34]: > 100 µM | TGI [35]: > 100 µM | TGI [36]: > 100 µM | TGI [37]: > 100 µM | TGI [38]: > 100 µM | TGI [39]: > 100 µM | TGI [40]: > 100 µM | TGI [41]: > 100 µM | TGI [42]: > 100 µM | TGI [43]: 80.1 µM | TGI [44]: > 100 µM | TGI [45]: > 100 µM | TGI [46]: > 100 µM | TGI [47]: > 100 µM | TGI [48]: > 100 µM | TGI [49]: > 100 µM | TGI [50]: > 100 µM | TGI [51]: > 100 µM | TGI [52]: > 100 µM | TGI [54]: > 100 µM | TGI [55]: > 100 µM | TGI [56]: > 100 µM | TGI [57]: > 100 µM | TGI [58]: > 100 µM
